For one assay, the system named is RIN-m5F cells. The assay is described as follows: Inhibition of GLP-1 stimulated insulin release in RIN-m5F cells. The settings on record: for GLP-1 induced insulin release: 3 nM GLP-1, 1 h, compounds 0.1 μM to 30 μM, FIG. 3. In kind it is cell-based. On the procedure:
The RIN-m5F cells were grown as in Example 2. The cells were plated in 96-well plates (10,000 per well) at a density of 2×10^5 cells per ml and grown for 3 days. The culture medium was changed the day before the experiment. On the day of the experiment, the medium was removed and replaced with serum-free RPMI 1640 containing 0.1% bovine serum albumin (serum-free medium). Dilutions of compounds prepared in serum-free medium from 10 mM DMSO stock solutions to give final concentrations from 0.1 μM to 30 μM were added. The cells were stimulated with 3 nM GLP-1 in a total volume of 200 μl for 1 h and the concentration of insulin in the medium was measured in an ELISA (Mercodia AB). The insulin release in the presence of medium was 6.3±1.4 ng/ml and 10.5±1.4 ng/ml in the presence of 3 nM GLP-1.

The target of assay [1] is T1, endogenous GLP-1 receptor coupled to adenylate cyclase (Rattus norvegicus, UniProt P32301).
T1 construct: host or cells: RIN-m5F insulinoma cells
T1 sequence (P32301 22-463): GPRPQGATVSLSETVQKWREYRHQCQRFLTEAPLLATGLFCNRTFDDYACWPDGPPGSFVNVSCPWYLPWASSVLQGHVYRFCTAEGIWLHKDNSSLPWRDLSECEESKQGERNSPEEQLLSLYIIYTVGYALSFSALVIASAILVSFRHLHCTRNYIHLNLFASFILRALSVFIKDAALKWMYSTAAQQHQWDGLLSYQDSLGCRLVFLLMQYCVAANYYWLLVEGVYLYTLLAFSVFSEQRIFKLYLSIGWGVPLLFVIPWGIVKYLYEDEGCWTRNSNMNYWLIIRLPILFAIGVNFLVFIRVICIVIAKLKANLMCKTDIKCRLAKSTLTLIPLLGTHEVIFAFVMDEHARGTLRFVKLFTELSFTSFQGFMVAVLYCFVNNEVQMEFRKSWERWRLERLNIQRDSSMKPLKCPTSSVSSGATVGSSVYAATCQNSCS
The assay is described as follows: Inhibition of GLP-1 induced cAMP signaling in RIN-m5F insulinoma cells. In kind it is cell-based. The settings on record: 3 nM GLP-1, 15 minutes, FIG. 2. On the procedure: The cells were obtained from the American Type Culture Collection (ATCC, #203641 F13132) and grown in RPMI 1640 (GIBCO, #21870-076) supplemented with 2 mM L-glutamine, 10% heat inactivated fetal bovine serum, and 10 μg/ml Gentamicin.
RIN-m5F cells were plated in 12 well plates at a density of 2.0×10^5 cells per ml and grown for 4 days in complete RPMI 1640 with 10% fetal bovine serum; the medium was changed the day before experiment. The cells were from 70-90% confluent at the time of the experiment. On the day of the experiment, the incubation medium was removed and the cells were washed with fresh serum-free RPMI 1640 containing 0.1% bovine serum albumin (serum-free medium). One ml DMEM complete with 1 mM 3-isobutyl-1-methylxanthine (Sigma) was added and the plates were placed at 37° C. and 5.0% CO2 for 15 minutes before initiation of the experiment. Fresh compounds were acquired and dissolved as 10 mM solutions in DMSO. A further 1:10 dilution was prepared in DMEM and after the incubation period, the compounds were added to the wells at 30 μM final concentration. The final concentration of DMSO was always 0.3%. The wells were treated with or without GLP-1 (3 nM). The plates were then incubated at 37° C. and 5.0% CO2 for 15 minutes. […] The solution was mixed well and quantitatively transferred to microcentrifuge tubes with 1 wash of 0.5 ml of the 50 mM NaOH solution. […]

The next assay deals with T2, human GLP-1 receptor (Homo sapiens, UniProt P43220).
T2 construct: expressed in transfected cells; host or cells: COS7 cells (COShGLPr, clone #16)
T2 sequence (P43220 24-463): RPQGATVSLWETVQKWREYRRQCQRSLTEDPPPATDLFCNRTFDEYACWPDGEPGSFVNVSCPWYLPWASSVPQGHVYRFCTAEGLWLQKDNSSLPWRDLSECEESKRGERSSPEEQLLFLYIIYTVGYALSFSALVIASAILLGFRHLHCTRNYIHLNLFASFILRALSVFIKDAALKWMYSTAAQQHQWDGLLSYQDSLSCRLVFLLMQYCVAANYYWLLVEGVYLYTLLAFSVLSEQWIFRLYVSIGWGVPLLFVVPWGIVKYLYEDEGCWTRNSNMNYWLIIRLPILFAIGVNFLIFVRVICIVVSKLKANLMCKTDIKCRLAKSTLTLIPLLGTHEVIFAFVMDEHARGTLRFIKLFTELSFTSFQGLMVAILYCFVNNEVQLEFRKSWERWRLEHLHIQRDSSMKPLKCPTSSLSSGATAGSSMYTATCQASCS
The assay is described as follows: Inhibition of 125I-GLP-1 binding to human recombinant GLP-1 receptors (SPA). The settings on record: 125I-GLP-1, membranes of COS7 cells transfected with human GLP-1 receptor, Cheng-Prushoff equation; read-out: K1 value, inhibition of the binding of GLP-1 to its receptor. On the procedure:
Wheatgerm agglutinin scintillation proximity assay (SPA) beads (500 mg) from Amersham (RPNQ 0001) were diluted into 50 ml of assay buffer (Assay buffer consisted of 150 mM NaCl, 10 mM MgCl2, 1 mM EDTA, and 20 mM HEPES, pH 7.4). The SPA beads were combined (1:1 v/v) with a crude membrane preparation from COS7 cells transfected with the human GLP-1 receptor at a concentration of 30 μg/ml/well. These cells (COShGLPr, clone #16) were grown in Dulbecco's Modified Eagle Medium with high glucose (DMEM Gibco, #11965-092) supplemented with 10% heat-inactivated fetal bovine serum (Gibco, #1600-044), 2 mM L-Glutamine (Gibco #25030-081), and 10 μg/ml Gentamicin (Gibco #15710-064) with 705 μg/ml Geneticin (G418 sulfate, Gibco) (DMEM complete). The mixture was incubated for two hours at room temperature with constant rotation. The free membranes were washed away by centrifuging the mixture for 5 minutes at 800 rpm in a table-top GLCl (Sorvall) centrifuge. The supernatant was discarded and the pellet was resuspended in 50 ml assay buffer+0.1% bovine serum albumin. […] The plates were counted approximately 10 h later in a Microbeta Trilux liquid scintillation counter (WALLAC). […] Binding constants (Ki) were calculated with the Cheng-Prushoff equation (Cheng Y C and Prushoff W H, Biochem Pharmacol 22:3099, 1973). […]

As to `Cc1nn(C)c(/C=C/Nc2ccc(OC(F)(F)F)cc2)c1[N+](=O)[O-]` [Compound C, 4-trifluoromethoxy-1-{[(E)-2-(1,3-dimethyl-4-nitro-1H-pyrazol-5-yl)ethenyl]amino}benzene], in the assay with RIN-m5F cells, the “GLP-1 induced insulin release” value is listed as “substantial reduction of the GLP-1 induced insulin release”. Take `Cc1nn(C)c(/C=C/Nc2cc(Cl)ccc2O)c1[N+](=O)[O-]` [Compound A, 4-chloro-2-{[(E)-2-(1,3-dimethyl-4-nitro-1H-pyrazol-5-yl)ethenyl]amino}phenol]: the “GLP-1 induced insulin release” value in the assay on RIN-m5F cells was “substantial reduction of the GLP-1 induced insulin release”. Further, the “GLP-1 stimulated cAMP production” value in assay [1] is “concentration dependently decreased GLP-1 stimulated cAMP production to a level close to that obtained in the absence of GLP-1”. Also, the Ki on human GLP-1 receptor is ~1000 nM. `Cc1nn(C)c(/C=C/Nc2ccc(F)cc2)c1[N+](=O)[O-]` [Compound B, 4-fluoro-1-{[(E)-2-(1,3-dimethyl-4-nitro-1H-pyrazol-5-yl)ethenyl]amino}benzene]: the “GLP-1 induced insulin release” value with RIN-m5F cells was “substantial reduction of the GLP-1 induced insulin release”. In the case of “Glucagon-like peptide 1(7-36)amide [GLP-1, reference compound]”, the insulin release in the assay on RIN-m5F cells (in the presence of 3 nM GLP-1 alone, 1 h (medium 6.3±1.4 ng/ml)) is 10.5 ± 1.4 ng/mL. For `COc1ccc(N/C=C/c2c([N+](=O)[O-])c(C)nn2C)c(OC)c1` [Compound D, 2,4-dimethoxy-1-{[(E)-2-(1,3-dimethyl-4-nitro-1H-pyrazol-5-yl)ethenyl]amino}benzene], the “GLP-1 induced insulin release” value in the assay on RIN-m5F cells was “substantial reduction of the GLP-1 induced insulin release”.

These data come from patent publication US6573291B2, “Method and use” (Biovitrum AB, priority 2000, dated 2003).
